The values that follow come from ChEMBL document CHEMBL5291721, “A preclinical secondary pharmacology resource illuminates target-adverse drug reaction associations of marketed drugs” (Nat Commun, 2023).

In assay [1] the target is T1, Muscarinic acetylcholine receptor M1 (Homo sapiens, UniProt P11229).
T1 sequence (P11229 whole entry): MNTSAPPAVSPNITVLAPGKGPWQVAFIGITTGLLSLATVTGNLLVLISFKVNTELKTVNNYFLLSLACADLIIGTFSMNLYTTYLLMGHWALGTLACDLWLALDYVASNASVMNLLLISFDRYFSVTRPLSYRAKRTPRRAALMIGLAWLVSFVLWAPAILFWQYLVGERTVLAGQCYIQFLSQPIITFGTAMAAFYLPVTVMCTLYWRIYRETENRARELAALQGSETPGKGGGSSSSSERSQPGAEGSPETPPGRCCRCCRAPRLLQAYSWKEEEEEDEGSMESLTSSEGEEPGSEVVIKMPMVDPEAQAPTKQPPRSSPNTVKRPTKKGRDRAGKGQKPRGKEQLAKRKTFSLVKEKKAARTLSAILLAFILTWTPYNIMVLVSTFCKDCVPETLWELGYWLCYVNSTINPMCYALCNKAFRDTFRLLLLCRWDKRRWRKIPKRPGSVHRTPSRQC
The class given is functional.

The target of assay [2] is Muscarinic acetylcholine receptor M3 (Homo sapiens, UniProt P20309).
The target of another assay is T2, Estrogen receptor (Homo sapiens, UniProt P03372).
T2 sequence (P03372 whole entry): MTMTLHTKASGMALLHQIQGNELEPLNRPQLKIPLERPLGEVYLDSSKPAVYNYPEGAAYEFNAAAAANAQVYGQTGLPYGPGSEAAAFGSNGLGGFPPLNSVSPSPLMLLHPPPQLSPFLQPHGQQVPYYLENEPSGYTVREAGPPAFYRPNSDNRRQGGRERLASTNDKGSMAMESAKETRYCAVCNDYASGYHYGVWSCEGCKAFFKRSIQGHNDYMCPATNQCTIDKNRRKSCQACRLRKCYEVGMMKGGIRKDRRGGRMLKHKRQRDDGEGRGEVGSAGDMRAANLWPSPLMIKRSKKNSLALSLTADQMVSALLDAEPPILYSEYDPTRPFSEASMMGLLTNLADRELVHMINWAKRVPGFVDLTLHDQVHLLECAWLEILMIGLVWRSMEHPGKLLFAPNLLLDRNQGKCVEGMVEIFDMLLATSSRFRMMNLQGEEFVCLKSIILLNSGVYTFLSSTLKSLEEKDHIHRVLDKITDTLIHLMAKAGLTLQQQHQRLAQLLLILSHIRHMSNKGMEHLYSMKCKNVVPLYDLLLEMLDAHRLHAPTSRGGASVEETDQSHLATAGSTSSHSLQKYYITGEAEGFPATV

A further assay concerns the target Histamine H1 receptor (Homo sapiens, UniProt P35367).
Assay [3] has as its target 5-hydroxytryptamine receptor 2A (Homo sapiens, UniProt P28223). The class given is functional, cell-based.
Assay [4] addresses T3, Alpha-1A adrenergic receptor (Homo sapiens, UniProt P35348).
T3 sequence (P35348 whole entry): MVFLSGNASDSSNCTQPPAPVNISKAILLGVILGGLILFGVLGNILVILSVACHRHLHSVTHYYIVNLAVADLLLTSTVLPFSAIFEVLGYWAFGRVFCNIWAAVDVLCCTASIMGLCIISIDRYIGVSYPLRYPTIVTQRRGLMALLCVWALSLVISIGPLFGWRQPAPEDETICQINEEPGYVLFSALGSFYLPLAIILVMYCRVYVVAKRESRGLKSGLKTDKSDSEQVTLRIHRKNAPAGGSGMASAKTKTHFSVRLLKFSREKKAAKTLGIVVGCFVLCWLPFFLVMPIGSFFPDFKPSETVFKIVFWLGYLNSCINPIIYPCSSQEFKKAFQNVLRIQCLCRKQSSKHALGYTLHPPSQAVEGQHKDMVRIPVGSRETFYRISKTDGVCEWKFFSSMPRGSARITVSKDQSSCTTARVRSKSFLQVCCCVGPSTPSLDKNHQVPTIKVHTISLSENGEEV

Assay [5] addresses Beta-3 adrenergic receptor (Homo sapiens, UniProt P13945).
A further assay deals with T4, B1 bradykinin receptor (Homo sapiens, UniProt P46663).
T4 sequence (P46663 whole entry): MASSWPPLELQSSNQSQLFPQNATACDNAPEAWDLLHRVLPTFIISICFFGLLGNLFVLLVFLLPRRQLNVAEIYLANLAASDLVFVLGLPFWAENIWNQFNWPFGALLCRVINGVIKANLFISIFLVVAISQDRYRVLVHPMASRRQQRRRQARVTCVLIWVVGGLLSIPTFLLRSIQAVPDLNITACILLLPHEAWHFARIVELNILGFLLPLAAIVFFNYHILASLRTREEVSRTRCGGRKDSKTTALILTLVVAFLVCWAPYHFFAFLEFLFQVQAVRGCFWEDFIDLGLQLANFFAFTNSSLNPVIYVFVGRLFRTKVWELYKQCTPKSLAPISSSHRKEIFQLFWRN

The target of the next assay is Cannabinoid receptor 1 (Homo sapiens, UniProt P21554).
Assay [6] has as its target Neurotensin receptor type 1 (Homo sapiens, UniProt P30989).
For assay [7], the target named is T5, 5-hydroxytryptamine receptor 1A (Homo sapiens, UniProt P08908).
T5 sequence (P08908 whole entry): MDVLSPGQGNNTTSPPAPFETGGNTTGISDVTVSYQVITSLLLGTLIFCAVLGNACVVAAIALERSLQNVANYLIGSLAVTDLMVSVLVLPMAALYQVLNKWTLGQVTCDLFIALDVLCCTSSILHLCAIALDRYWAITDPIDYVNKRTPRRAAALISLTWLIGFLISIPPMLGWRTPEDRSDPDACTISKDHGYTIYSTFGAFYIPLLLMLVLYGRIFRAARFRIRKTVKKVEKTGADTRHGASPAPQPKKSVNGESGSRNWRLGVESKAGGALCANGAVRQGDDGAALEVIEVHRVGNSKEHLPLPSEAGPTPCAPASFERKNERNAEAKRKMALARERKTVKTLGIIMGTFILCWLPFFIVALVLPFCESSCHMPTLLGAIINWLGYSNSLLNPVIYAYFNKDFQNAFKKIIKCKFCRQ

A value given as a limit tells only on which side of the number the result lay.
Note: assay procedure not described here.

Sequence of 5-hydroxytryptamine receptor 2A (P28223 whole entry): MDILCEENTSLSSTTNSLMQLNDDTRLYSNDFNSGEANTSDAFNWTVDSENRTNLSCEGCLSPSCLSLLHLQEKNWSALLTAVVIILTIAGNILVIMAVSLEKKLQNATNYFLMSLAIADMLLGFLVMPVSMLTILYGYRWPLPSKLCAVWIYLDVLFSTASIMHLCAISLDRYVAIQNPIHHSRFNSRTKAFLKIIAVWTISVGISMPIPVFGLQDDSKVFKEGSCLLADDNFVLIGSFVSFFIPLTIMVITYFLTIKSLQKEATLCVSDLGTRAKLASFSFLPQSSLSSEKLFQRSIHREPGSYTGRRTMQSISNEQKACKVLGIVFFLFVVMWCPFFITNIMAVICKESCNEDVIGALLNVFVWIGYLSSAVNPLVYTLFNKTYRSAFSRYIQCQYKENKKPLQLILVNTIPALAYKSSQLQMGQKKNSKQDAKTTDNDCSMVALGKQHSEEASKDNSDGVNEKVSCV
Sequence of Muscarinic acetylcholine receptor M3 (P20309 whole entry): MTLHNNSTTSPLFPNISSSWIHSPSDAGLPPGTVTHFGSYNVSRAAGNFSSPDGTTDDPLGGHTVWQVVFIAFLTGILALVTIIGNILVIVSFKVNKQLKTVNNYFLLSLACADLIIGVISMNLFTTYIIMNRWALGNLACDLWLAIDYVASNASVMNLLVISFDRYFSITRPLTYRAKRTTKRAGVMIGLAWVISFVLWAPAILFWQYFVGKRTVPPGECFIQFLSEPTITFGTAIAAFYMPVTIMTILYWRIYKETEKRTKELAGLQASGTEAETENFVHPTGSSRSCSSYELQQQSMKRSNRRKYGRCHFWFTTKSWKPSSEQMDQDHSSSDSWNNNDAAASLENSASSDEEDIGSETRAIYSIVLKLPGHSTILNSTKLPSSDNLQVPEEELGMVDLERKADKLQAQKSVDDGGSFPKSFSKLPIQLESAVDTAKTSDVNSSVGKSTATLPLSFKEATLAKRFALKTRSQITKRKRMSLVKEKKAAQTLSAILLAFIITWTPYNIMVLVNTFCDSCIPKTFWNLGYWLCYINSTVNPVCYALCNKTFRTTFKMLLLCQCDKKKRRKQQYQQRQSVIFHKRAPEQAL
Sequence of Neurotensin receptor type 1 (P30989 whole entry): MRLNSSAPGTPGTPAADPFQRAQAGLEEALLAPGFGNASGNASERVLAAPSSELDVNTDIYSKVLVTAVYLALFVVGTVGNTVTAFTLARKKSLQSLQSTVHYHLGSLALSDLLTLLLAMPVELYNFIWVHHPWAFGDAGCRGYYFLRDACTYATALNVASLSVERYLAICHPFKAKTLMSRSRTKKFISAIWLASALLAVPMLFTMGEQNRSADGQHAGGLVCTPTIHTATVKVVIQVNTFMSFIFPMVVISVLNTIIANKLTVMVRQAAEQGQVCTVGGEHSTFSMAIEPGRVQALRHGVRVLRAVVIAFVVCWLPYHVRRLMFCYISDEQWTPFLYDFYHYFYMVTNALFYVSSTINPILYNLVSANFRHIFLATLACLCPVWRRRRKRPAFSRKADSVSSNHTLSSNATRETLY
Sequence of Beta-3 adrenergic receptor (P13945 whole entry): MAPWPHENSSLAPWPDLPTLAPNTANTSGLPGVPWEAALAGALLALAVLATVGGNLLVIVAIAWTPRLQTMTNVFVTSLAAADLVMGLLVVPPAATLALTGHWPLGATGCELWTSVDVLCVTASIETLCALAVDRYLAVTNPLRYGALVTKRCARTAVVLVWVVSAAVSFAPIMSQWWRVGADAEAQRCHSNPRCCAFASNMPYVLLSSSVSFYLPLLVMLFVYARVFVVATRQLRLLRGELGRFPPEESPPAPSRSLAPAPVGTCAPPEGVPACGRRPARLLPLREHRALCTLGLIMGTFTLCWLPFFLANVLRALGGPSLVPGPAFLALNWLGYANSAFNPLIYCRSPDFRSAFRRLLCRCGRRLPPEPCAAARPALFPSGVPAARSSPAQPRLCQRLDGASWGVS
Sequence of Histamine H1 receptor (P35367 whole entry): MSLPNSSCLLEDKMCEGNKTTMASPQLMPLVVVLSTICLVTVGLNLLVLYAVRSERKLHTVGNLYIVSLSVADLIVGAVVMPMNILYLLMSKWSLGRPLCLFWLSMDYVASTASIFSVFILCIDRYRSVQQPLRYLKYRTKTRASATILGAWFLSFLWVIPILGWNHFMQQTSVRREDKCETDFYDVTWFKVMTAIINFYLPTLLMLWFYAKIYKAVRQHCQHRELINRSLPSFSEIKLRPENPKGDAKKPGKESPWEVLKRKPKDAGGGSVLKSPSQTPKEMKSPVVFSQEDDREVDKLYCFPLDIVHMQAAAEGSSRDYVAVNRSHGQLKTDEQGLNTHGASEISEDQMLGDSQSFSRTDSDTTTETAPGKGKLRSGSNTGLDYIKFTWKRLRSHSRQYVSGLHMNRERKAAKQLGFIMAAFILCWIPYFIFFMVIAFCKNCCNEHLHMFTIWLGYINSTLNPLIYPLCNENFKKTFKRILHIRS
Sequence of Cannabinoid receptor 1 (P21554 whole entry): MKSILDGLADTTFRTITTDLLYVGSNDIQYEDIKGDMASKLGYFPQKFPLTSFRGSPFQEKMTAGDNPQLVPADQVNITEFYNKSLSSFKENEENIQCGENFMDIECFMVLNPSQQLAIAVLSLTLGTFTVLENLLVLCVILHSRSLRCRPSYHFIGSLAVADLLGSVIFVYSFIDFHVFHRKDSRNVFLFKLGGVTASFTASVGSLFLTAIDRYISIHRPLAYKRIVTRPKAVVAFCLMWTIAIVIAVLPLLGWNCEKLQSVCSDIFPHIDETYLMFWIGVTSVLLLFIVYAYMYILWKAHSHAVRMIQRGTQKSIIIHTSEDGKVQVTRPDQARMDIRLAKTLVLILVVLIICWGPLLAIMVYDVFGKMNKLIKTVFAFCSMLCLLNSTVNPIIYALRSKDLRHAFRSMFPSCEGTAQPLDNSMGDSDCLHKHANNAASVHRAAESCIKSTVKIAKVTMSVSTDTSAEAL

Consider `Cc1nnc(SCC2=C(C(=O)O)N3C(=O)[C@@H](NC(=O)Cn4cnnn4)[C@H]3SC2)s1` [CEFAZOLIN], for which the AC50 was greater than 300 µM in assay [1]; greater than 300 µM in assay [2]; greater than 30 µM on Estrogen receptor; greater than 300 µM at Histamine H1 receptor; greater than 300 µM in assay [3].

The compound `CC(C)C[C@H](NC(=O)[C@@H](O)[C@H](N)Cc1ccccc1)C(=O)O` [UBENIMEX] yielded an AC50 at Estrogen receptor greater than 30 µM.

As for `O=C(O)Cc1ccccc1Nc1c(Cl)cccc1Cl` [DICLOFENAC], the AC50 in assay [4] is 5 µM; in [5], greater than 30 µM; on B1 bradykinin receptor, greater than 30 µM; on Cannabinoid receptor 1, greater than 10 µM; in assay [6], greater than 30 µM; in assay [7], greater than 10 µM.

In the case of `CC=CC1=C(C(=O)O)N2C(=O)[C@@H](NC(=O)[C@H](N)c3ccc(O)cc3)[C@H]2SC1` [CEFPROZIL], the concentration at half-maximal activity (AC50) (in assay [1]; in assay [2]; at Cannabinoid receptor 1; on Estrogen receptor; at Histamine H1 receptor; in [3]) was greater than 30 µM throughout.

Turning to `Cc1nc(Nc2ncc(C(=O)Nc3c(C)cccc3Cl)s2)cc(N2CCN(CCO)CC2)n1` [DASATINIB], the half-maximal activity concentration (AC50) in [4] was greater than 10 µM; at B1 bradykinin receptor, greater than 10 µM; in [1], greater than 30 µM; in assay [2] it was greater than 30 µM; on Cannabinoid receptor 1, greater than 10 µM; at Histamine H1 receptor it was greater than 30 µM. For the same compound, in assay [7], the activity was half-maximal at 21.9 µM (AC50).

Consider `CC1(C)S[C@@H]2[C@H](NC(=O)C(C(=O)O)c3ccccc3)C(=O)N2[C@H]1C(=O)O` (some centres undefined) [CARBENICILLIN], for which the AC50 (in assay [1]; in [2]; on Histamine H1 receptor; in assay [3]) was greater than 30 µM in each case.

With `Clc1ccc(Cn2c(CN3CCCC3)nc3ccccc32)cc1` [CLEMIZOLE], the AC50 in [1] is greater than 30 µM; in assay [2] it was greater than 30 µM; on Histamine H1 receptor, 0.0034 µM; in assay [3], greater than 30 µM.

With `CC(C)NC(=N)NC(=N)Nc1ccc(Cl)c(Cl)c1` [CHLORPROGUANIL], the AC50 (in assay [1]; in [2]; at Histamine H1 receptor; in assay [3]) was greater than 30 µM each time.

In the case of `CN(CCOc1ccc(CC2SC(=O)NC2=O)cc1)c1ccccn1` (centres undefined) [ROSIGLITAZONE], the AC50 is greater than 30 µM in [5]; greater than 30 µM at B1 bradykinin receptor; 16 µM at Cannabinoid receptor 1; greater than 30 µM on Estrogen receptor; greater than 30 µM in assay [6]; greater than 10 µM in assay [7].

In turn, `CC(C(=O)O)c1ccc2oc(-c3ccc(Cl)cc3)nc2c1` (centres undefined) [BENOXAPROFEN] yielded a concentration at half-maximal activity (AC50) on Estrogen receptor greater than 30 µM.

Turning to `CC(CN1c2ccccc2Sc2ccccc21)N(C)C` (centres undefined) [PROMETHAZINE], the AC50 is 0.0996 µM in [4]; greater than 30 µM in assay [5]; greater than 30 µM on B1 bradykinin receptor; greater than 10 µM on Cannabinoid receptor 1; greater than 30 µM in assay [6]; 6.7 µM in [7].

In the case of `COc1cc(C(C)=O)ccc1OCCCN1CCC(c2noc3cc(F)ccc23)CC1` [ILOPERIDONE], the AC50 was 6.38 µM in assay [1], greater than 30 µM in assay [2] and 0.0785 µM in [7].

As to `CC(=O)Nc1ccc(CC(=O)O)cc1` [ACTARIT], the AC50 (in assay [1]; in assay [2]; at Estrogen receptor; on Histamine H1 receptor; in [3]) was greater than 30 µM each time.

At Estrogen receptor, `COc1ccccc1OC1(C)OC(=O)c2ccccc2O1` (centres undefined) [GUAIMESAL] showed an AC50 greater than 30 µM.

`CCCCCCCN(CC)CCCC(O)c1ccc(NS(C)(=O)=O)cc1` (centres undefined) [IBUTILIDE]: the AC50 was greater than 30 µM in assay [1]; 21 µM in assay [2]; greater than 30 µM on Cannabinoid receptor 1; greater than 30 µM on Histamine H1 receptor; greater than 30 µM in assay [3].

`S=P(N1CC1)(N1CC1)N1CC1` [THIOTEPA] gave an AC50 in assay [2] of 9.3 µM.

Take `CNC(=C[N+](=O)[O-])NCCSCc1csc(CN(C)C)n1` [NIZATIDINE]: the AC50 (in [4]; on Cannabinoid receptor 1) was greater than 10 µM in each case.

In the case of `CC(C)(O/N=C(\C(=O)N[C@@H]1C(=O)N2C(C(=O)[O-])=C(C[n+]3ccccc3)CS[C@H]12)c1csc(N)n1)C(=O)O` [CEFTAZIDIME], the AC50 in [1] was greater than 300 µM; in assay [2] it was greater than 300 µM; at Estrogen receptor, greater than 30 µM; on Histamine H1 receptor, greater than 300 µM; in [3], greater than 300 µM.

Take `C[N+](C)(C)CCOP(=O)(O)OP(=O)([O-])OC[C@H]1O[C@@H](n2ccc(N)nc2=O)[C@H](O)[C@@H]1O` [CITICOLINE]: the AC50 in assay [1] is greater than 10 µM; in assay [2], greater than 30 µM; at Histamine H1 receptor, greater than 30 µM; in [3], greater than 30 µM.

With `COc1cc(C(=O)NS(=O)(=O)c2ccccc2C)ccc1Cc1cn(C)c2ccc(NC(=O)OC3CCCC3)cc12` [ZAFIRLUKAST], the AC50 in [4] is greater than 10 µM; on Cannabinoid receptor 1, greater than 10 µM; at Estrogen receptor it was greater than 30 µM.

For `CCOc1cc([C@@H](CS(C)(=O)=O)N2C(=O)c3cccc(NC(C)=O)c3C2=O)ccc1OC`, the AC50 (in [1]; in assay [2]; at Histamine H1 receptor; in [3]) was greater than 30 µM in each case.

Turning to `Cc1onc(-c2c(F)cccc2Cl)c1C(=O)N[C@@H]1C(=O)N2[C@@H]1SC(C)(C)[C@@H]2C(=O)O` [FLOXACILLIN], the AC50 (in [1]; in [2]; at Histamine H1 receptor; in assay [3]) was greater than 30 µM each time.

For `CN1Cc2c(N)cccc2C(c2ccccc2)C1` (centres undefined) [NOMIFENSINE], the AC50 is greater than 30 µM in [1], greater than 30 µM in [2], 30 µM on Histamine H1 receptor and greater than 30 µM in [3].

As to `CCCc1cc(=O)[nH]c(=S)[nH]1` [PROPYLTHIOURACIL], the AC50 (in assay [4]; at Cannabinoid receptor 1; at Estrogen receptor) was greater than 10 µM throughout.

As to `Cn1cc(C(=O)[C@@H]2CCc3nc[nH]c3C2)c2ccccc21` [RAMOSETRON], the half-maximal activity concentration (AC50) (in [1]; in [2]; at Estrogen receptor; on Histamine H1 receptor; in [3]) was greater than 30 µM each time.
